The subject of test [1] is HCV genotype 1a replicon cells. Kind of test: Drug-resistant colony selection in replicon cells. The test is classed as cell-based, Hepatitis C virus. The text has this:
(§1) . After approximately 3 weeks of treatment, the surviving replicon colonies in one plate for each selection condition were stained with crystal violet and counted, whereas approximately 20 to 30 colonies in a replicate plate or most of the colonies, if less than 20 colonies survived the selection, were picked and further expanded for genotyping. The expanded colonies were lysed in CellsDirect lysis buffer (Invitrogen, MA), and the NS3-coding region from each colony was amplified by reverse transcription-PCR and sequenced. For genotype 1a, 1b, 2a, and 5a colonies, the full-length NS3 sequence was determined, whereas for colonies of the chimeric replicon containing the N-terminal region of NS3 from genotype 2b, 3a, 4a, or 6a, the sequence encoding the NS3 N-terminal region was determined. We defined a substitution in a replicon to be an amino acid difference in a sequence from a posttreatment sample relative to the sequence of the corresponding untreated sample. For resistance selection studies, NS3 substitutions detected at the following amino acid positions associated with resistance to the HCV PI class in >2 colonies in each replicon selection are reported: 36, 43, 54, 55, 56, 80, 122, 155, 156, and 168. In addition, substitutions detected at other amino acid positions in the NS3 protease domain in >2 colonies in each replicon selection are also reported.
(§2) […]. The drug-resistant colonies were fixed and stained with crystal violet, and the number of colonies was determined.

Test [2] concerns HCV genotype 1b replicon cells. In words: Drug-resistant colony selection in replicon cells. It is filed as cell-based, Hepatitis C virus.
Excerpt: as §1, §2
Background: In antiviral work, replicon cells carry a viral genome segment that copies itself.

Test [3] concerns HCV replicons with genotype 2a patient proteases. In words: Transient replicon assay with proteases from HCV-infected patients. The test is classed as cell-based. The settings on record: Hepatitis C virus, subtype 2a, no polymorphism, 4 samples. The text has this: […]. Each of the NS3 gene sequences from genotypes 1, 2, and 4, with the exception of two genotype 2b sequences, was derived from serum or plasma from an HCV-infected patient by bulk PCR amplification, producing a population of sequences representing the viral quasispecies. Two genotype 2b sequences were synthesized based on the consensus sequences of the respective samples. One genotype 3a sequence was synthesized based on a consensus sequence from the sequences available in the Los Alamos HCV sequence database, and another genotype 3a sequence was a clonal sequence derived from a patient sample. The genotype 5a sequence (strain SA13) was synthesized based on the published sequence of the HCV isolate ([48]).
A genotype 2a JFH-1 replicon shuttle vector was used to generate transient replicons containing NS3 from clinical samples from genotype 2a- and genotype 2b-infected patients. The region encoding the first 227 amino acids of NS3 from samples from genotype 2a- and 2b-infected patients was used to replace the corresponding region in the genotype 2a JFH-1 replicon shuttle vector. The genotype 2a JFH-1 replicon shuttle vector was also used to generate a transient replicon containing a region encoding full-length NS3 through the first 39 amino acids of NS5B from genotype 5a (strain SA13). […]

In test [4] the target is T1, Elastase (Homo sapiens, UniProt P08246).
T1 construct: purchased Sigma-Aldrich
T1 sequence (P08246 30-247 limits assumed): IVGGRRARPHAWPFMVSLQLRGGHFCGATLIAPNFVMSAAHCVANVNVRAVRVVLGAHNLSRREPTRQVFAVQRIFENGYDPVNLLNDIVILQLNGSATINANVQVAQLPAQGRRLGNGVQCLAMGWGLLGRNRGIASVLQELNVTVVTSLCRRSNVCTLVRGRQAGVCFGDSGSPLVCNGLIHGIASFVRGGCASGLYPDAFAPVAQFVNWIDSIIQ
In words: Human protease biochemical assay. The settings on record: read-out: Mean IC50 ± SD. The protocol:
(§3) […]; catalog number M9771; Sigma-Aldrich), and 0.05 U/ml elastase (excitation wavelength = 370 nm, emission wavelength = 460 nm); (ii) for chymase, 0.4 M Tris, pH 8.0, 1.8 M NaCl, 9% dimethyl sulfoxide, 0.4 mM substrate (Suc-AAF-AMC; catalog number S8758; Sigma-Aldrich), and 0.063 U/ml chymase (excitation wavelength = 370 nm, emission wavelength = 460 nm); (iii) for cathepsin B, 50 mM MES (morpholineethanesulfonic acid), pH 6.0, 50 mM NaCl, 2 mM EDTA, 0.1% Triton X-100, 0.4 mM substrate (Z-RR-AMC; catalog number C5429; Sigma-Aldrich), and 1.7 μg/ml cathepsin B (excitation wavelength = 370 nm, emission wavelength = 460 nm); (iv and v) for chymotrypsin types II and VII, 50 mM Tris, pH 8, 10 mM CaCl2, 0.1% Triton X-100, 0.25 mM substrate (Suc-AAF-AMC; catalog number S8758; Sigma-Aldrich), and 0.5 nM chymotrypsin type II or type VII (excitation wavelength = 370 nm, emission wavelength = 460 nm); (vi) for kallikrein, 50 mM Tris, pH 7.4, 0.5 mM EDTA, 0.05% Tween 20, 150 mM NaCl, 0.35 mM substrate (H-Pro-Phe-Arg-AMC; catalog number I-1295; Bachem), and 2 nM kallikrein (excitation wavelength = 355 nm, emission wavelength = 460 nm); and (vii) for urokinase, 50 mM Tris, pH 7.4, 0.15 M NaCl, 0.5% Pluronic F-68, 0.2 mM substrate (pyro-Glu Arg-p-nitroanilide-HCl; catalog number S-2444; Diapharma), and 3 nM urokinase (absorbance at 405 nm).

In test [5] the target is T2, Chymotrypsin type VII (Bos taurus, UniProt P00766).
T2 construct: purchased Sigma-Aldrich
In words: Human protease biochemical assay. The settings on record: read-out: Mean IC50 ± SD. As for the experimental part: as §3

Test [6] has as its target T3, Cathepsin B (Homo sapiens, UniProt P07858).
T3 construct: purchased Sigma-Aldrich
In words: Human protease biochemical assay. The settings on record: read-out: Mean IC50 ± SD. The protocol: as §3

The target in test [7] is T4, Chymotrypsin type II (Bos taurus, UniProt P00766).
T4 construct: purchased Sigma-Aldrich
Kind of test: Human protease biochemical assay. The settings on record: read-out: Mean IC50 ± SD. The protocol:
as §3

Test [8] has as its target T5, Urokinase (Homo sapiens, UniProt P00749).
T5 construct: purchased Sigma-Aldrich
In words: Human protease biochemical assay. The settings on record: read-out: Mean IC50 ± SD. As for the experimental part:
as §3

Test [9] concerns the target T6, Chymase (Homo sapiens, UniProt P23946).
T6 construct: purchased Sigma-Aldrich
In words: Human protease biochemical assay. The settings on record: read-out: Mean IC50 ± SD. The protocol:
as §3

Structures are written as SMILES. Where two headings read alike, the source gives them in different places.

The values that follow come from article PMC5740381 (Antimicrobial Agents and Chemotherapy, 2017).

T6 sequence (P23946 22-247): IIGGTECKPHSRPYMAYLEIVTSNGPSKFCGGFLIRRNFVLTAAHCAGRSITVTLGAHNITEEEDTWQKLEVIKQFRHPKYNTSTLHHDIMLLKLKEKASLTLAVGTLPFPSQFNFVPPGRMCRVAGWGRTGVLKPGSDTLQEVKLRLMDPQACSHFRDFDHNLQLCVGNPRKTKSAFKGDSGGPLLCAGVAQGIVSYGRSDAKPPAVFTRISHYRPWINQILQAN

On to `CC(C)(C)[C@@H]1NC(=O)O[C@@H]2CCC[C@H]2OC/C=C/C(F)(F)c2nc3ccccc3nc2O[C@@H]2C[C@@H](C(=O)N[C@]3(C(=O)NS(=O)(=O)C4(C)CC4)C[C@H]3C(F)F)N(C2)C1=O` [Glecaprevir, (3aR,7S,10S,12R,21E,24aR)-7-tert-butyl-N-[(1R,2R)-2-(difluoromethyl)-1-{[(1-methylcyclopropyl)sulfonyl]carbamoyl}cyclopropyl]-20,20-difluoro-5,8-dioxo-2,3,3a,5,6,7,8,11,12,20,23,24a-dodecahydro-1H,10H-9,12-methanocyclopenta[18,19][1,10,17,3,6]trioxadiazacyclononadecino[11,12-b]quinoxaline-10-carboxamide], for which the Colony survival was 0.043% in test [1] (10× EC50, about 3 weeks); 0.0029% in test [1] (100× EC50); 0.047% in [2] (10× EC50, about 3 weeks); 0.03% in test [2] (100× EC50). For the same compound, the EC50 (usually the concentration needed to bring the measured effect to its halfway point) in test [3] (read-out: EC50 Median) was 0.0016 µM; in test [3] (read-out: EC50 Range), 0.00066 to 0.0019 µM. Besides, the concentration for half-maximal inhibition (IC50) in [4], in test [5], in [6], in [7], in [8] and in [9] was greater than 200 µM each time.
